Test results from patent publication US7767676B2, “Dihydro-1,3,5-triazine amine derivatives and their therapeutic uses” (Merck Sante, priority 2000, dated 2010).
Counter-ions that a name gives are not always drawn. Like-named read-outs stand apart in the source and are kept apart here.

Key:
[1] = system: Maillard reaction of bovine albumin with methylglyoxal; assay: Antiglycation activity: fructosamine assay after incubation of albumin with methylglyoxal; type: biochemical; settings: compound 10 mM, bovine albumin 6.6 mg/ml, 1 mM methylglyoxal, pH 7.4, 37° C., 6 days; relative to incubation without compound
Protocol: Study of the Antiglycation Activity
The compounds (I) are also capable of inhibiting the so-called Maillard reactions by “capturing effect” on the α-dicarbonyl-containing derivatives such as glyoxal—this is the antiglycation effect. This Maillard reaction inhibiting effect of the compounds according to the invention was studied in vitro by assaying ketamines (“fructosamines”) produced during the incubation of albumin with methylglyoxal in the presence or otherwise of a compound of formula (I) according to the invention.
A solution of bovine albumin at 6.6 mg/ml in 0.2 M phosphate buffer, pH 7.4, is incubated with 1 mM methylglyoxal in the presence or otherwise of a compound according to the invention at a concentration of 10 mM. The incubation is carried out under sterile conditions at 37° C. for 6 days. At the end of the incubation period, the quantity of ketamines is measure with a commercially available fructosamine assay kit (“FRA” kit, product reference: 0757055, Roche S. A. products) according to the manufacturer's instructions.
By way of example, results obtained under these experimental conditions are assembled in Table IV: level of fructosamine after incubation of the albumin with the methylglyoxal in the presence of compounds (I) according to the invention in relation to the level of fructosamine when albumin is incubated with methylglyoxal in the absence of the compounds (I) according to the invention.

[2] = system: non-insulin-dependent diabetes induced in rats by Streptozotocin; assay: Antidiabetic activity in the Nostz rat (non-insulin-dependent diabetes induced by neonatal streptozotocin), glycaemia after oral treatment; type: in vivo; settings: diabetic rats, blood 2 h after last administration; for change in vivo at 20 mg/kg: 20 mg/kg/D oral; for change in vivo at 200 mg/kg: 200 mg/kg/D oral
Protocol: Study of the Antidiabetic Activity in the Nostz Rat
The antidiabetic activity of the compounds of formula (I) administered orally was determined on an experimental model of non-insulin-dependent diabetes induced in rats by Streptozotocin.
The non-insulin-dependent diabetes model is obtained in rats by neonatal injection (on the day of birth) of streptozotocin.
The diabetic rats used were 8 weeks old. The animals were kept, from the day of their birth to the day of the experiment, in an animal house at a controlled temperature of 21 to 22° C. and subjected to a fixed cycle of light (from 7 am to 7 pm) and darkness (from 7 pm to 7 am). Their diet consisted of a maintenance diet, water and food were provided “ab libitum”, with the exception of the 2 hours of fasting preceding the tests when the food is withdrawn (postabsorptive state).
The rats were treated by the oral route for one (D1) or four (D4) days with the product to be tested. Two hours after the last administration of the product and 30 minutes after anaesthetizing the animals with sodium pentobarbital (Nembutal a), 300 μl of blood sample are collected from the end of the tail.
By way of example, results obtained are assembled in Table III.

[3] = 24 h, 1 day of treatment, read-out: percentage variation of glycaemia at D1 relative to D0
[4] = 96 h, 4 days of treatment, read-out: percentage variation of glycaemia at D4 relative to D0

Row | Compound | Reduction in the level of fructosamines (%) [1] [%] | change in vivo at 20 mg/kg [2, 3] [%] | change in vivo at 200 mg/kg [2, 3] [%] | change in vivo at 20 mg/kg [2, 4] [%] | change in vivo at 200 mg/kg [2, 4] [%] | melting point [°C]
1 | CCC1N=C(N)NC(N(C)C)=N1 (stereo not drawn) [Compound 1, 2-amino-3,6-dihydro-4-dimethylamino-6-ethyl-1,3,5-triazine hydrochloride] | 62 | -7 | -13 | -2 | -15 | 
2 | CN(C)C1=NC(c2ccccc2)N=C(N)N1 (stereo not drawn) [Compound 10] | 80 |  |  |  |  | 
3 | COc1ccc(C2N=C(N)NC(N(C)C)=N2)cc1 (stereo not drawn) [Compound 11] | 89 |  |  |  |  | 
4 | CN(C)C1=NC(c2ccc(O)cc2)N=C(N)N1 (stereo not drawn) [Compound 12] | 90 |  |  |  |  | 
5 | CN(C)C1=NC(c2ccc(O)cc2)N=C(N)N1 (stereo not drawn) [Compound 13] | 95 |  |  |  |  | > 260
6 | CC1N=C(N)NC(N(C)C)=N1 (stereo not drawn) [Compound 18] | 69 | -6 | -29 | -4 | -28 | 
7 | CN(C)C1=NCN=C(N)N1 [Compound 33] | 79 | -7 | -9 | -6 | -14 | 
8 | CN(C)C1=NC(C2CCCCC2)N=C(N)N1 (stereo not drawn) [Compound 34] | 64 | -5 | -6 | -15 | -21 | 
9 | CN(C)C1=NC(C(F)(F)F)N=C(N)N1 (stereo not drawn) [Compound 36] | 66 |  |  |  |  | 
10 | CN(C)C1=NC(Cc2ccccc2)N=C(N)N1 (stereo not drawn) [Compound 37] | 65 | -7 | -10 | -8 | -15 | 
11 | CN(C)C1=NC(c2ccco2)N=C(N)N1 (stereo not drawn) [Compound 40] | 66 | -8 | -18 | -12 | -18 | 
12 | CC(C)CC1N=C(N)NC(N(C)C)=N1 (stereo not drawn) [Compound 43] | 68 | -4 | -12 | -16 | -17 | 
13 | CN(C)C1=NC(C2CC=CCC2)N=C(N)N1 (stereo not drawn) [Compound 45] | 67 |  |  |  |  | 
